Patent US20230285514A1, “STAPLED LACTAM CO-AGONISTS OF THE GLUCAGON AND GLP-1 RECEPTORS” (Merck Sharp & Dohme LLC, priority 2019, published 2023)
*1 amine or outer side, *2 acyl side, *3 side chain or, on linkers, in order; H or OH if unused. Where a SMILES comes first, the peptide text is derived from it. Bridges are numbered along the chain shown (N, C = ends). Side-chain parts run from the residue outwards. [ ]: non-standard residue; d: D form. The star is where a group is joined. γGlu = O=C(O)[C@H](CCC(=O)[*:2])N[*:1]; Palmitoyl = CCCCCCCCCCCCCCCC(=O)*; Nle = CCCC[C@H](N)C(=O)O; Aib = CC(C)(N)C(=O)O

Tests used:
[1] = biological target: T1, human GCGR (Homo sapiens, UniProt P47871); assay: cAMP activity assay, cells expressing human GCGR; format: cell-based; settings: ratio of human GCGR EC50 to human GLP1R EC50
T1 construct: expressed in transfected cells
T1 sequence (P47871 26-477): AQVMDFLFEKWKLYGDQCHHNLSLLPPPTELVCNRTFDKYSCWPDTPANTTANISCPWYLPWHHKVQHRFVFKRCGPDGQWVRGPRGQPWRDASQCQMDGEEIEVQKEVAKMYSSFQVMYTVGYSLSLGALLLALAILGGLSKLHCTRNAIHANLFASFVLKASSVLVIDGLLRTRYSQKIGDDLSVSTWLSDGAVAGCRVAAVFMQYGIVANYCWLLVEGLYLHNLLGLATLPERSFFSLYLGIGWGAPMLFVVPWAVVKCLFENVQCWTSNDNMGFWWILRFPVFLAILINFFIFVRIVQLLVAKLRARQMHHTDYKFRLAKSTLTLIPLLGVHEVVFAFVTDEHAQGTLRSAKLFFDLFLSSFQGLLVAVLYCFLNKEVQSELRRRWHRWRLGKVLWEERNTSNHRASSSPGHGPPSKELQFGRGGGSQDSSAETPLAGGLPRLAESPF
Experimental: (§1) Activity of the peptides at the Glucagon receptor (GCGR) and GLP-1 receptor (GLP1R) was measured in a cAMP activity assay. Peptides were dissolved in 100% DMSO and serially diluted to generate 10 point titrations. The peptide solutions were then transferred into 384-well assay plates (150 nL/well). Assay ready frozen cells expressing human GLP1R or human GCGR were suspended in growth media consisting of DMEM medium (GIBCO), 10% FBS (GIBCO), 1×NEAA(GIBCO), 1×P/S (GIBCO), 10 ug/ml Blasticidin (GIBCO) and 200 μg/mL Hygromycin (GIBCO). […] The cell suspensions (15 μL) were then added to the assay plates containing the peptide solutions (30,000 cells/well for human GCGR; 10,000 cells/well for human GLP1R). […] Production of cAMP was determined using […] kits (DiscoverX) following manufacturer protocol. The plates were incubated for overnight at room temperature in the dark. Luminescence was measured using an EnVision Multilabel plate reader (Perkin Elmer). Native GLP-1 and Glucagon (Bachem) are used as control peptides.

[2] = biological target: T2, human GLP1R (Homo sapiens, UniProt P43220); assay: cAMP activity assay, cells expressing human GLP1R; format: cell-based; settings: cAMP production, 1 hour, table does not say whether with or without 20% human serum, read-out: GLPIR EC50 human
T2 construct: expressed in transfected cells
T2 sequence (P43220 24-463): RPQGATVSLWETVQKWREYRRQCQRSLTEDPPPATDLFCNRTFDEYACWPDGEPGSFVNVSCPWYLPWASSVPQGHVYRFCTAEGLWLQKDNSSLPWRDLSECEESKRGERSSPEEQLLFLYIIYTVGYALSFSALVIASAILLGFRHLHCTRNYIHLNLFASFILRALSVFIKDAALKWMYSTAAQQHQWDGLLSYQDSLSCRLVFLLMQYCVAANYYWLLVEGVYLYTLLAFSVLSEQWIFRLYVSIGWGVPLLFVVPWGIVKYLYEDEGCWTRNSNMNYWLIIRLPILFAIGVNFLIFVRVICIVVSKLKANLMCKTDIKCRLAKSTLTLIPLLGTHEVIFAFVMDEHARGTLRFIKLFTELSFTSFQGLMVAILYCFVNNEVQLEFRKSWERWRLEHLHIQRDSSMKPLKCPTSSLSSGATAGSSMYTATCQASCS
Experimental: as §1

| SMILES | hGCGR/hGLPIR (hTone) [1] | EC50 [2] |
| --- | --- | --- |
| CCCCCCCCCCCCCCCC(=O)N[C@@H](CCC(=O)N[C@@H](CCC(=O)NCCCC[C@H](NC(=O)[C@H](CC(=O)O)NC(=O)[C@H](CO)NC(=O)[C@@H](NC(=O)[C@H](Cc1ccccc1)NC(=O)[C@@H](NC(=O)CNC(=O)[C@H](CCC(N)=O)NC(=O)[C@@H](CO)NC(=O)[C@@H](N)Cc1c[nH]cn1)[C@@H](C)O)[C@@H](C)O)C(=O)N[C@@H](CO)C(=O)N[C@@H](CCCCN)C(=O)N[C@@H](Cc1ccc(O)cc1)C(=O)N[C@@H](CC(C)C)C(=O)N[C@@H](CC(=O)O)C(=O)N[C@@H](C)C(=O)N[C@@H](CCCNC(=N)N)C(=O)N[C@@H](C)C(=O)N[C@@H](C)C(=O)N[C@H]1CCCCNC(=O)CC[C@@H](C(=O)N[C@@H](Cc2c[nH]c3ccccc23)C(=O)N[C@@H](CC(C)C)C(=O)N[C@@H](CC(C)C)C(=O)N[C@@H](CC(=O)O)C(=O)N[C@H](C(N)=O)[C@@H](C)O)NC(=O)[C@H](C(C)C)NC(=O)[C@H](Cc2ccccc2)NC(=O)[C@H](CC(=O)O)NC1=O)C(=O)O)C(=O)O [SEQ ID NO: 11] | 0.6 | 0.17 nM |
| CCCCCCCCCCCCCCCC(=O)N[C@@H](CCC(=O)N[C@@H](CCC(=O)NCCCC[C@H](NC(=O)[C@H](CC(=O)O)NC(=O)[C@H](CO)NC(=O)[C@@H](NC(=O)[C@H](Cc1ccccc1)NC(=O)[C@@H](NC(=O)CNC(=O)[C@H](CCC(N)=O)NC(=O)C(C)(C)NC(=O)[C@@H](N)Cc1c[nH]cn1)[C@@H](C)O)[C@@H](C)O)C(=O)N[C@@H](CO)C(=O)N[C@@H](CCCCN)C(=O)N[C@@H](Cc1ccc(O)cc1)C(=O)N[C@@H](CC(C)C)C(=O)N[C@@H](CC(=O)O)C(=O)NC(C)(C)C(=O)N[C@H]1CCCCNC(=O)CC[C@@H](C(=O)N[C@@H](Cc2ccccc2)C(=O)N[C@H](C(=O)N[C@@H](CCC(N)=O)C(=O)N[C@@H](Cc2c[nH]c3ccccc23)C(=O)N[C@@H](CC(C)C)C(=O)N[C@@H](CCCC)C(=O)N[C@@H](CC(=O)O)C(=O)N[C@H](C(N)=O)[C@@H](C)O)C(C)C)NC(=O)[C@H](CCC(N)=O)NC(=O)[C@H](C)NC(=O)[C@H](C)NC1=O)C(=O)O)C(=O)O [SEQ ID NO: 16] (H-H[Aib]QGTFTSDK([γGlu-γGlu-Palmitoyl])SKYLD[Aib]KAAQEFVQWL[Nle]DT-NH2; lactam 17-21; N-terminus assumed) | 1.25 | 0.17 nM |
| CCCCCCCCCCCCCCCC(=O)N[C@@H](CCC(=O)N[C@@H](CCC(=O)NCCCC[C@H](NC(=O)[C@H](CC(=O)O)NC(=O)[C@H](CO)NC(=O)[C@@H](NC(=O)[C@H](Cc1ccccc1)NC(=O)[C@@H](NC(=O)CNC(=O)[C@H](CCC(N)=O)NC(=O)C(C)(C)NC(=O)[C@@H](N)Cc1c[nH]cn1)[C@@H](C)O)[C@@H](C)O)C(=O)N[C@@H](CO)C(=O)N[C@@H](CCCCN)C(=O)N[C@@H](Cc1ccc(O)cc1)C(=O)N[C@@H](CC(C)C)C(=O)N[C@@H](CC(=O)O)C(=O)NC(C)(C)C(=O)N[C@@H](CCCNC(=N)N)C(=O)N[C@@H](C)C(=O)N[C@@H](C)C(=O)N[C@@H](CCC(N)=O)C(=O)N[C@@H](CC(=O)O)C(=O)N[C@@H](Cc1ccccc1)C(=O)N[C@H](C(=O)N[C@H]1CCCCNC(=O)CC[C@@H](C(=O)N[C@H](C(N)=O)[C@@H](C)O)NC(=O)[C@H](CCCC)NC(=O)[C@H](CC(C)C)NC(=O)[C@H](Cc2c[nH]c3ccccc23)NC1=O)C(C)C)C(=O)O)C(=O)O [SEQ ID NO: 17] (H-H[Aib]QGTFTSDK([γGlu-γGlu-Palmitoyl])SKYLD[Aib]RAAQDFVKWL[Nle]ET-NH2; lactam 24-28; N-terminus assumed) | 1.05 |  |
